The assay deals with healthy male S.D. rats. Kind of assay: Intestinal motility test after the feces tests (Example 3). The class given is in vivo, rat. The conditions noted are these: after the 10-day feces tests; control rats 61.1%; dose not stated. On the procedure:
After the above-discussed feces tests, intestinal motility tests were conducted. Before the experiment, the rats were fasted for at least sixteen hours. The rats were then given the aforementioned drugs or extracts. After 3 hours, each rat was given 3 ml/kg of 0.5% methylcellulose solution-0.5% Evans blue dye. Each rat was sacrificed 30 minutes later and its abdominal cavity was cut open. The entire small intestine was extracted and carefully straightened. The entire stretch between the pylorous and cecum was measured as the small intestine length. The distance traveled by Evans blue dye along the intestines was also measured. During dissection, any unusual observations were recorded and photographed. The intestinal motility function was calculated in the following formula: Intestine motility=(Evans blue dye length/small intestine length)×100%. After finishing the feces tests, intestinal motility tests were conducted in the same manner described above. During dissection, any unusual observations were recorded and photographed. For comparison within the groups, a Post hoc Comparison was applied with p<0.05 indicating significant differences.

This passage reports intestinal motility results from US8466202B2, “Anthracenedione compounds” (Sunten Phytotech Co., Ltd., priority 2006, dated 2013).

With Sennosides, the intestinal motility is on record as 67.9%.
